Measurements: US6616919B2, “Dibenzoylmethane sunscreen compositions containing photostabilizing amounts of tri-substituted butane compounds” (Societe l'Oreal S.A., priority 2001, dated 2003)

What was measured:
Type in all cases: physicochemical
[1] = Photostability of octyltriazone in the presence of butylmethoxydibenzoylmethane in Support 2 formulations, xenon lamp exposure, UV spectrometry (Example 2); conditions: Support 2, 0.5% butylmethoxydibenzoylmethane + 1.5% Uvinul T150, X = 0% by weight (no stabilizer)
Protocol: (§1) The photostability of octyltriazone in the presence of butylmethoxydibenzoylmethane was examined on several formulations in which the amount of 1,1,1-tris(2-methyl-4-hydroxy-5-tert-butylphenyl)butane (X) was varied. The support common to these formulations was as follows: [table] For each formula, 3 test samples and 3 control samples were prepared. 2 mg/cm^2 of formula were deposited by spatula onto polymethyl methacrylate plates. […], to a Sun Test Heraus machine equipped with a xenon lamp and having as UV-A illumination: 3.02×10^−3 W/cm^2, and as UV-B illumination: 2.1×10^−4 W/cm^2, and the control plates were maintained for the same time and at the same temperature (38-40° C.) in darkness. After this time, the screening agents were extracted by immersing each plate in 50 g of ethanol and subjecting them to ultrasound for 15 minutes to ensure good extraction. The solutions obtained were analyzed by UV spectrometry. For each test formula, the amount of residual butylmethoxydibenzoylmethane and the residual amount of octyltriazone after exposure is given as the ratio of each respective optical density (OD) in the exposed sample to the unexposed optical density (OD) corresponding to each filter. The machine was set at the maximum absorption corresponding to each filter: Octyltriazone: λmax=312 nm

[2] = Photostability of butylmethoxydibenzoylmethane in Support 1 formulations, xenon lamp exposure, UV spectrometry (Example 1); conditions: Support 1, 2% butylmethoxydibenzoylmethane, X = 0% by weight (no 1,1,1-tris(2-methyl-4-hydroxy-5-tert-butylphenyl)butane); ratio of exposed to unexposed OD
Protocol: The photostability of the dibenzoylmethane compound was evaluated on several formulations in which the amount of 1,1,1-tris(2-methyl-4-hydroxy-5-tert-butylphenyl)butane (X) was varied. The support common to these formulations was as follows: [table] For each formula, 3 test samples and 3 control samples were prepared. 2 mg/cm^2 of formula were deposited by spatula onto polymethyl methacrylate plates. […], to a Sun Test Heraus machine equipped with a xenon lamp and having as UV-A illumination: 3.02×10^−3 W/cm^2, and as UV-B illumination: 2.1×10^−4 W/cm^2, and the control plates were maintained for the same time and at the same temperature (38-40° C.) in darkness. After this time, the screening agents were extracted by immersing each plate in 50 g of ethanol and subjecting them to ultrasound for 15 minutes to ensure good extraction. The solutions obtained were analyzed by UV spectrometry. For each test formula, the amount of residual butylmethoxydibenzoylmethane after exposure is given as the ratio of its optical density (OD) in the exposed sample to its unexposed optical density (OD). […]

[3] = Photostability of butylmethoxydibenzoylmethane in Support 2 formulations containing octyltriazone, xenon lamp exposure, UV spectrometry (Example 2); conditions: Support 2, 0.5% butylmethoxydibenzoylmethane + 1.5% Uvinul T150, X = 0% by weight (no stabilizer)
Protocol: as §1, with “Butylmethoxydibenzoylmethane: λmax=358” for “Octyltriazone: λmax=312”

Structure (SMILES) | Residual OD of the triazine at 312 nm after 1 hour of UVA irradiation [1] [%] | Residual OD at 358 nm after 1 hour of UVA irradiation [2] [%] | Residual OD of the dibenzoylmethane at 358 nm after 1 hour of UVA irradiation [3] [%]
CCCCC(CC)COC(=O)c1ccc(Nc2nc(Nc3ccc(C(=O)OCC(CC)CCCC)cc3)nc(Nc3ccc(C(=O)OCC(CC)CCCC)cc3)n2)cc1 (stereo not drawn) [octyltriazone, 2,4,6-tris[p-(2′-ethylhexyl-1′-oxycarbonyl)anilino]-1,3,5-triazine] | 87 ± 13 |  | 
COc1ccc(C(=O)CC(=O)c2ccc(C(C)(C)C)cc2)cc1 [butylmethoxydibenzoylmethane, 4-(tert-butyl)-4′-methoxydibenzoylmethane] |  | 11 ± 1 | 32 ± 4
